{"source": "paper doi:10.64898/2025.12.09.693205v1", "about": "(biorxiv, 2025)", "biological_target": "T1, UBE2N (Homo sapiens, UniProt P61088)", "T1 sequence (P61088 1-152)": "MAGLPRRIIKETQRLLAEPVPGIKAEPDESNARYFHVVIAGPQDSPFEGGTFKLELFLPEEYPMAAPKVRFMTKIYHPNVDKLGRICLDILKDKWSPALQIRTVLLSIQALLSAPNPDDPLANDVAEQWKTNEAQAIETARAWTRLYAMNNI", "experiment": "microscale thermophoresis", "format": "binding", "settings": "PBS pH 7.4, 0.05% Tween20; labelled protein; MST-on time 9-10 s; n = 3"}
{"smiles": "COC(=O)c1cc2c(cn1)[nH]c1ccc(O)cc12", "note": "[Variabine B]", "values": [{"measurement": "Kd", "result": "35.3 ± 6.3", "unit": "µM"}]}
